# US20220306695A1, “COMPSTATIN ANALOGUES AND THEIR MEDICAL USES” (priority 2019, published 2022)
# Starred links: 1 amine or outer side, 2 acyl side, 3 side chain; linkers in the order of their positions; H or OH if unused. Positions of bridges follow the written chain, without caps; N, C: chain ends. Non-standard residues stand in square brackets, D forms with d. Residues, ends and D or L forms follow the SMILES beside them. Groups on a side chain read outwards from the residue. *: point of attachment. C20 diacid = O=C(O)CCCCCCCCCCCCCCCCCCC(=O)*; Trp(1-Me) = Cn1cc(C[C@H](N)C(=O)O)c2ccccc21; Abu(4-yl) = O=C([C@H](CC[*:3])N[*:1])[*:2]; C18 diacid = O=C(O)CCCCCCCCCCCCCCCCC(=O)*; C16 diacid = O=C(O)CCCCCCCCCCCCCCC(=O)*; γGlu = O=C(O)[C@H](CCC(=O)[*:2])N[*:1]; AEEA = NCCOCCOCC(=O)O; Aoc = NCCCCCCCC(=O)O; Sar = CNCC(=O)O
# System: classical complement pathway
# Test: In vitro haemolysis assay (inhibition of classical complement pathway)
# Format: cell-based, human
# Settings: Table 3; human serum, sensitized sheep red blood cells; read-out: IC50[nM], in vitro analysis of inhibition of hemolysis
# How it was run: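 Serially diluted compound (9 points) was preincubated 15 min at room temperature with diluted human serum, titrated per batch to give 70-90% maximal haemolysis, in Tris/casein buffer pH 7.4 with Mg2+/Ca2+. Antibody-sensitized sheep erythrocytes were then added for 30 min at 37° C, and the reaction was stopped with EDTA. Haemolysis was read at A405, with IC50 from 4PL fit.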
row,SMILES,IC50
1,CC[C@H](C)[C@@H]1NC(=O)[C@@H](NC(=O)[C@H](Cc2ccccc2)NC(=O)[C@H](CCC(=O)O)NC(=O)[C@H](CO)NC(C)=O)CSSC[C@@H](C(=O)N[C@H](C(=O)N[C@@H](CCC(=O)O)C(=O)NCC(=O)N[C@@H](CCC(=O)O)C(=O)NCCCCCCCC(=O)N[C@@H](CCCCNC(=O)CC[C@H](NC(=O)CNC(=O)CC[C@H](NC(=O)CCCCCCCCCCCCCCCCC(=O)O)C(=O)O)C(=O)O)C(N)=O)[C@@H](C)O)NC(=O)[C@H](CCCNC(=N)N)NC(=O)[C@H](Cc2c[nH]cn2)NC(=O)[C@H](CCC(=O)O)NC(=O)CNC(=O)[C@H](Cc2c[nH]c3ccccc23)NC(=O)[C@H](CC(=O)O)NC(=O)[C@H](CCC(N)=O)NC(=O)[C@H](Cc2cn(C)c3ccccc23)NC1=O [Compound 136] (Ac-SEFCI[Trp(1-Me)]QDWGEHRCTEGE[Aoc]K([γGlu-Gly-γGlu-C18 diacid])-NH2; disulfide 4-14),< 100 nM
2,CC[C@H](C)[C@@H]1NC(=O)[C@@H](NC(=O)CN(C)C(C)=O)CSSC[C@@H](C(=O)N[C@H](C(N)=O)[C@@H](C)O)NC(=O)[C@H](CCCNC(=N)N)NC(=O)[C@H](Cc2c[nH]cn2)NC(=O)[C@H](CCC(=O)O)NC(=O)CNC(=O)[C@H](Cc2c[nH]c3ccccc23)NC(=O)[C@H](CC(=O)O)NC(=O)[C@H](CCC(N)=O)NC(=O)[C@H](Cc2c[nH]c3ccccc23)NC1=O [Compound 11] (Ac-[Sar]CIWQDWGEHRCT-NH2; disulfide 2-12),< 100 nM
3,CC[C@H](C)[C@@H]1NC(=O)[C@@H](NC(=O)[C@H](Cc2ccccc2)NC(C)=O)CSSC[C@@H](C(=O)N[C@H](C(=O)NCC(=O)N[C@@H](C)C(=O)N[C@@H](CCC(=O)O)C(N)=O)[C@@H](C)O)NC(=O)[C@H](CCCNC(=N)N)NC(=O)[C@H](Cc2c[nH]cn2)NC(=O)[C@H](CCC(=O)O)NC(=O)CNC(=O)[C@H](Cc2c[nH]c3ccccc23)NC(=O)[C@H](CC(=O)O)NC(=O)[C@H](CCC(N)=O)NC(=O)[C@H](Cc2c[nH]c3ccccc23)NC1=O [Compound 43] (Ac-FCIWQDWGEHRCTGAE-NH2; disulfide 2-12),< 100 nM
4,CC[C@H](C)[C@@H]1NC(=O)[C@@H](NC(=O)[C@H](Cc2ccccc2)NC(=O)[C@H](CCC(=O)O)NC(=O)[C@H](CO)NC(C)=O)CCSC[C@@H](C(=O)N(C)CC(=O)N[C@@H](CCC(=O)O)C(=O)NCC(=O)N[C@@H](CCC(=O)O)C(=O)NCCOCCOCC(=O)NCCOCCOCC(=O)N[C@@H](CCCCNC(=O)CC[C@H](NC(=O)CNC(=O)CC[C@H](NC(=O)CCCCCCCCCCCCCCCCC(=O)O)C(=O)O)C(=O)O)C(N)=O)NC(=O)[C@H](CCCNC(=N)N)NC(=O)[C@H](Cc2c[nH]cn2)NC(=O)[C@H](CCC(=O)O)NC(=O)CNC(=O)[C@H](Cc2c[nH]c3ccccc23)NC(=O)[C@H](CCC(=O)O)NC(=O)[C@H](CCC(N)=O)NC(=O)[C@H](Cc2cn(C)c3ccccc23)NC1=O [Compound 167] (Ac-SEF[Abu(4-yl)]I[Trp(1-Me)]QEWGEHRC[Sar]EGE[AEEA][AEEA]K([γGlu-Gly-γGlu-C18 diacid])-NH2; thioether 4-14),< 500 nM
5,"CC[C@H](C)[C@@H]1NC(=O)[C@@H](NC(=O)[C@H](Cc2ccccc2)NC(=O)[C@H](CCC(=O)O)NC(=O)[C@H](CO)NC(C)=O)CSCC[C@@H](C(=O)N(C)CC(=O)N[C@@H](CCC(=O)O)C(=O)NCC(=O)N[C@@H](CCC(=O)O)C(=O)NCCOCCOCC(=O)NCCOCCOCC(=O)N[C@@H](CCCCNC(=O)CC[C@H](NC(=O)CNC(=O)CC[C@H](NC(=O)CCCCCCCCCCCCCCC(=O)O)C(=O)O)C(=O)O)C(N)=O)NC(=O)[C@H](CCCNC(=N)N)NC(=O)[C@H](Cc2c[nH]cn2)NC(=O)[C@H](CCC(=O)O)NC(=O)CNC(=O)[C@H](Cc2c[nH]c3ccccc23)NC(=O)[C@H](CC(=O)O)NC(=O)[C@H](CCC(N)=O)NC(=O)[C@H](Cc2cn(C)c3ccccc23)NC1=O [Compound 160, Ac-SEFA(1)I[1-Me-Trp]QDWGEHRhC(1)[Sar]EGE[Peg3][Peg3]-K([15-carboxy-pentadecanoyl][γGlu]G[γGlu])-NH2] (Ac-SEFCI[Trp(1-Me)]QDWGEHR[Abu(4-yl)][Sar]EGE[AEEA][AEEA]K([γGlu-Gly-γGlu-C16 diacid])-NH2; thioether 4-14)",< 100 nM
6,"CC[C@H](C)[C@@H]1NC(=O)[C@@H](NC(=O)[C@H](Cc2ccccc2)NC(=O)[C@H](CCC(=O)O)NC(=O)CNC(C)=O)CSCC[C@@H](C(=O)N(C)CC(=O)N[C@@H](CCC(=O)O)C(=O)N[C@@H](C)C(=O)N[C@@H](CCC(=O)O)C(=O)NCCOCCOCC(=O)NCCOCCOCC(=O)N[C@@H](CCCCNC(=O)CC[C@H](NC(=O)CNC(=O)CC[C@H](NC(=O)CCCCCCCCCCCCCCCCC(=O)O)C(=O)O)C(=O)O)C(N)=O)NC(=O)[C@H](CCCNC(=N)N)NC(=O)[C@H](Cc2c[nH]cn2)NC(=O)[C@H](CCC(=O)O)NC(=O)CN(C)C(=O)[C@H](Cc2c[nH]c3ccccc23)NC(=O)[C@H](CC(=O)O)NC(=O)[C@H](CCC(N)=O)NC(=O)[C@H](Cc2cn(C)c3ccccc23)NC1=O [Compound 149, Ac-GEFA(1)I[1-Me-Trp]QDW[Sar]EHRhC(1)[Sar]EAE[Peg3][Peg3]-K([17-carboxy-heptadecanoyl][γGlu]G[γGlu])-NH2] (Ac-GEFCI[Trp(1-Me)]QDW[Sar]EHR[Abu(4-yl)][Sar]EAE[AEEA][AEEA]K([γGlu-Gly-γGlu-C18 diacid])-NH2; thioether 4-14)",< 100 nM
7,CC[C@H](C)[C@H](NC(C)=O)C(=O)N[C@H]1CSSC[C@@H](C(=O)N[C@H](C(N)=O)[C@@H](C)O)NC(=O)[C@H](CCCNC(=N)N)NC(=O)[C@H](Cc2c[nH]cn2)NC(=O)[C@H](CCCCN)NC(=O)CNC(=O)[C@H](Cc2c[nH]c3ccccc23)NC(=O)[C@H](CC(=O)O)NC(=O)[C@H](CCC(N)=O)NC(=O)[C@H](Cc2c[nH]c3ccccc23)NC(=O)[C@H]([C@@H](C)CC)NC1=O [Compound 5] (Ac-ICIWQDWGKHRCT-NH2; disulfide 2-12),< 250 nM
8,CC[C@H](C)[C@H](NC(C)=O)C(=O)N[C@H]1CSSC[C@@H](C(=O)N[C@H](C(=O)N[C@@H](CCC(=O)O)C(=O)NCC(=O)N[C@@H](CCCCNC(=O)COCCOCCNC(=O)COCCOCCNC(=O)CC[C@H](NC(=O)CCCCCCCCCCCCCCC(=O)O)C(=O)O)C(N)=O)[C@@H](C)O)NC(=O)[C@H](CCCNC(=N)N)NC(=O)[C@H](Cc2c[nH]cn2)NC(=O)[C@H](CCC(=O)O)NC(=O)CNC(=O)[C@H](Cc2c[nH]c3ccccc23)NC(=O)[C@H](CC(=O)O)NC(=O)[C@H](CCC(N)=O)NC(=O)[C@H](Cc2c[nH]c3ccccc23)NC(=O)[C@H]([C@@H](C)CC)NC1=O [Compound 93] (Ac-ICIWQDWGEHRCTEGK([AEEA-AEEA-γGlu-C16 diacid])-NH2; disulfide 2-12),< 500 nM
9,CC[C@H](C)[C@@H]1NC(=O)[C@@H](NC(=O)[C@@H](NC(=O)[C@H](CCC(=O)O)NC(=O)CNC(=O)[C@H](CCC(=O)O)NC(C)=O)[C@@H](C)CC)CSSC[C@@H](C(=O)N[C@@H](CCC(=O)O)C(=O)NCC(=O)N[C@@H](CCC(=O)O)C(N)=O)NC(=O)[C@H](CCCNC(=N)N)NC(=O)[C@H](Cc2c[nH]cn2)NC(=O)[C@H](CCC(=O)O)NC(=O)CNC(=O)[C@H](Cc2c[nH]c3ccccc23)NC(=O)[C@H](CC(=O)O)NC(=O)[C@H](CCC(N)=O)NC(=O)[C@H](Cc2c[nH]c3ccccc23)NC1=O [Compound 35] (Ac-EGEICIWQDWGEHRCEGE-NH2; disulfide 5-15),< 500 nM
10,CC[C@H](C)[C@H](NC(C)=O)C(=O)N[C@H]1CSSC[C@@H](C(=O)N[C@H](C(=O)NCC(=O)N[C@@H](C)C(=O)N[C@@H](CCC(=O)O)C(=O)N[C@@H](CO)C(N)=O)[C@@H](C)O)NC(=O)[C@H](CCCNC(=N)N)NC(=O)[C@H](Cc2c[nH]cn2)NC(=O)[C@H](C)NC(=O)CNC(=O)[C@H](Cc2c[nH]c3ccccc23)NC(=O)[C@H](CCCCN)NC(=O)[C@H](CCC(N)=O)NC(=O)[C@H](Cc2c[nH]c3ccccc23)NC(=O)[C@H]([C@@H](C)CC)NC1=O [Compound 8] (Ac-ICIWQKWGAHRCTGAES-NH2; disulfide 2-12),< 500 nM
11,CC[C@H](C)[C@H](NC(C)=O)C(=O)N[C@H]1CSSC[C@@H](C(=O)N[C@H](C(=O)N[C@@H](CCC(=O)O)C(=O)NCC(=O)N[C@@H](CCCCN)C(N)=O)[C@@H](C)O)NC(=O)[C@H](CCCNC(=N)N)NC(=O)[C@H](Cc2c[nH]cn2)NC(=O)[C@H](CCC(=O)O)NC(=O)CNC(=O)[C@H](Cc2c[nH]c3ccccc23)NC(=O)[C@H](CC(=O)O)NC(=O)[C@H](CCC(N)=O)NC(=O)[C@H](Cc2c[nH]c3ccccc23)NC(=O)[C@H]([C@@H](C)CC)NC1=O [Compound 39] (Ac-ICIWQDWGEHRCTEGK-NH2; disulfide 2-12),< 100 nM
12,CC[C@H](C)[C@@H]1NC(=O)[C@@H](NC(=O)[C@@H](NC(=O)[C@H](CCCCN)NC(=O)[C@H](CCC(=O)O)NC(=O)[C@H](CCCCN)NC(C)=O)[C@@H](C)CC)CSSC[C@@H](C(=O)N[C@H](C(=O)N[C@@H](CCC(=O)O)C(=O)N[C@@H](CCCCN)C(=O)N[C@@H](CCC(=O)O)C(N)=O)[C@@H](C)O)NC(=O)[C@H](CCCNC(=N)N)NC(=O)[C@H](Cc2c[nH]cn2)NC(=O)[C@H](CCC(=O)O)NC(=O)CNC(=O)[C@H](Cc2c[nH]c3ccccc23)NC(=O)[C@H](CC(=O)O)NC(=O)[C@H](CCC(N)=O)NC(=O)[C@H](Cc2c[nH]c3ccccc23)NC1=O [Compound 37] (Ac-KEKICIWQDWGEHRCTEKE-NH2; disulfide 5-15),< 250 nM
13,CC[C@H](C)[C@H](NC(C)=O)C(=O)N[C@H]1CSSC[C@@H](C(=O)N[C@H](C(=O)N[C@@H](CCC(=O)O)C(=O)NCC(=O)N[C@@H](CCCCNC(=O)COCCOCCNC(=O)COCCOCCNC(=O)CC[C@H](NC(=O)CCCCCCCCCCCCCCCCCCC(=O)O)C(=O)O)C(N)=O)[C@@H](C)O)NC(=O)[C@H](CCCNC(=N)N)NC(=O)[C@H](Cc2c[nH]cn2)NC(=O)[C@H](CCC(=O)O)NC(=O)CNC(=O)[C@H](Cc2c[nH]c3ccccc23)NC(=O)[C@H](CC(=O)O)NC(=O)[C@H](CCC(N)=O)NC(=O)[C@H](Cc2c[nH]c3ccccc23)NC(=O)[C@H]([C@@H](C)CC)NC1=O [Compound 98] (Ac-ICIWQDWGEHRCTEGK([AEEA-AEEA-γGlu-C20 diacid])-NH2; disulfide 2-12),< 500 nM
